Test results published in patent US7285556B2, “Thienopyrimidine-based inhibitors of the src family” (Board of Regents, The University of Texas Systems, priority 2000, dated 2007).
Where two headings read alike, the source gives them in different places.

How the values were obtained:
[1] = tested on: osteoclastic bone resorption; conditions: Rodan and Martin, 2000; cited from earlier work
[2] = target: T1, Recombinant human Src (Homo sapiens, UniProt P12931); assay: Src tyrosine kinase activity, poly E4Y and 32P-ATP; type: biochemical
T1 construct: made in house; host or cells: baculovirus-insect cell system
Outline: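 Recombinant GST-Csk (E. coli) or baculovirus-expressed human Src assayed on poly E4Y in 0.15 M EPPS-NaOH pH 8.0, 6 mM MgCl2, 0.2 mM γ32P-ATP, 10% glycerol, 0.1% Triton X-100. Read-out is 32P incorporation into poly E4Y; for ATP variation (0–250 μM), poly E4Y held at 150 μg/ml.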

[3] = target: T2, N12 neuronal Src variant (Homo sapiens, UniProt P12931); assay: Testing against neuronal Src variant N12; type: biochemical; conditions: Table 5
T2 construct: made in house
Procedure: (§1) The tyrosine kinase activity of Src, Csk and FGFr was determined using poly E4Y and ^32P-ATP. Briefly, enzymes were assayed in a reaction mixture consisting of 0.15 M EPPS-NaOH (pH 8.0) with 6 mM MgCl2, 0.2 mM γ^32P-ATP (0.2-0.4 mCi/μmol), 10% glycerol, 0.1% Triton X-100, and poly E4Y. Poly E4Y is a synthetic peptide whose phosphorylation is measured in this assay by the addition of the radioactively labeled phosphate from the ATP (Budde et al., 1995). […] When ATP was varied (0, 50, 100 and 250 μM), poly E4Y was kept constant at 150 μg/ml.
(§2) Thienopyrimidine-based compounds were also tested against neuronal Src variants (Table 5).

[4] = target: T3, N23 neuronal Src variant (Homo sapiens, UniProt P12931); assay: Testing against neuronal Src variant N23; type: biochemical; conditions: Table 5
T3 construct: made in house
Procedure: as §1, §2

[5] = tested on: colon adenocarcinoma cell line, HT29; assay: MTT reduction assay, in vitro drug cytotoxicity; type: cell-based; conditions: Homo sapiens, HT-29, 72 hours incubation, read-out: IC50, HT-29 cells
Procedure: Compounds synthesized using the methods described above were tested using a standard MTT assay (Green et al., 1984) against a colon adenocarcinoma cell line, HT29. A human ovarian cancer cell line, SKOv-3 may also be used. The use of an MTT assay using these cells is recognized as an accepted assay for anti-tumor activity by those in the field. The in vitro activity of Src inhibitors of the present invention against diseases other than cancer may be assayed by methods known to those of skill in the art.
In vitro drug cytotoxicities against a colon adenocarcinoma cell line, HT29 was assessed by using the MTT reduction assay, as previously reported (Green et al., 1984). A human ovarian cancer cell line, SKOv-3 may also be used. The MTT dye was obtained from Sigma Chemical Co. (St. Louis, Mo.). The drugs were dissolved in DMSO:PEG 300 (1:1). Neither DMSO or PEG 300 are toxic to cells at a concentration of 31.6 μg/ml. […] The optical density of each well was then measured with a microplate spectrophotometer at a wavelength of 570 nm with a reference cell at 650 nm. The percent cell viability was calculated by the following equation: % cell viability=(OD treated wells/OD control wells)×100
where OD is the mean optical density from four determinations. The percent cell viability values were plotted against the drug concentrations used, and the IC50 was calculated from the curve.

T1 sequence (P12931 whole entry): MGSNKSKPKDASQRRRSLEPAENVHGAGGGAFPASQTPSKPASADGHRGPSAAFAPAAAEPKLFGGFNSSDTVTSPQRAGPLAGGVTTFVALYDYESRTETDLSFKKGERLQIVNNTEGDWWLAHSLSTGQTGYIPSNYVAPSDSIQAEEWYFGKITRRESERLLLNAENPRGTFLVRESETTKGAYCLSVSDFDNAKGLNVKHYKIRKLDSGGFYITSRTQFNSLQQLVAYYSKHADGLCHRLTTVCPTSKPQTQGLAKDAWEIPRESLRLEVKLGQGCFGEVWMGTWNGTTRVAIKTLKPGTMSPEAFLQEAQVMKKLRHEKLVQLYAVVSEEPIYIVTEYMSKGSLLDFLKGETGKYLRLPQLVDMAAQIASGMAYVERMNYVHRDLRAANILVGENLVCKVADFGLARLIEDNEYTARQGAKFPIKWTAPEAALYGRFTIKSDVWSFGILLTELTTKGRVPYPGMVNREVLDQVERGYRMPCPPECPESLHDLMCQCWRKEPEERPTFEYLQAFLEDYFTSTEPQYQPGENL
T2 sequence (P12931 1-542 isoform P12931-2): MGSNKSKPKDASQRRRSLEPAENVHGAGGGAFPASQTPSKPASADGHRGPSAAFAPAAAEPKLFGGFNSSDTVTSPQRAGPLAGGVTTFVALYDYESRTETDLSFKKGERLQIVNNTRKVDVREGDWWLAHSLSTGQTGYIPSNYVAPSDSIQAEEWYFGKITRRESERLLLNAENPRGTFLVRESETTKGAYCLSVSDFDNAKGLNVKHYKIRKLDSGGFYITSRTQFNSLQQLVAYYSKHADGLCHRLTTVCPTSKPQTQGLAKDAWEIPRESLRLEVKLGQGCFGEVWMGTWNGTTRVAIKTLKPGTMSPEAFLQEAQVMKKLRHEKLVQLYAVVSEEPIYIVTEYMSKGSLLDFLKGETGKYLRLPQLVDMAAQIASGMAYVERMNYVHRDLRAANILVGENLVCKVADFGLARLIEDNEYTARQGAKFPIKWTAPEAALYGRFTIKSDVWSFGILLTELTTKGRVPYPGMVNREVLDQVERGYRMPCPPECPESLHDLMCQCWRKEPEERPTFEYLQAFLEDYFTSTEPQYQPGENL
T3 sequence (P12931 1-553 isoform P12931-3): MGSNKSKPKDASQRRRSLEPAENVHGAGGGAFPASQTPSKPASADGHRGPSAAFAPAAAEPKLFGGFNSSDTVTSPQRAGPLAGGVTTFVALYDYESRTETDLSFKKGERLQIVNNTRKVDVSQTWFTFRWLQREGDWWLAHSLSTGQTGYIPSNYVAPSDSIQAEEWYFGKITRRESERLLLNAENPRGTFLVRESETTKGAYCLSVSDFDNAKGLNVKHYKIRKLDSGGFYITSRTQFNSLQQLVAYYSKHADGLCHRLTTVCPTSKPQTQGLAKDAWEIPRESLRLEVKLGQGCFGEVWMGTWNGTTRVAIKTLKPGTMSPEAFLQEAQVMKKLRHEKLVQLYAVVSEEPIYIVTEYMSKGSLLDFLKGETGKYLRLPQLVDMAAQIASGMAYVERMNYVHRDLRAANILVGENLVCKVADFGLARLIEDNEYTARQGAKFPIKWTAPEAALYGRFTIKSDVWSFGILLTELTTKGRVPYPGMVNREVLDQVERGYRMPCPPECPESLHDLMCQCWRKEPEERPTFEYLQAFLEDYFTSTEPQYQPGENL

SMILES	osteoclastic bone resorption in vivo [1]	IC50 ([2]; Table 2, read-out: Src IC50 (especially good inhibitors of Src))	IC50 ([2]; Table 5, N6 = Src, read-out: N6(Src) IC50)	IC50 ([2]; read-out: IC50 (preferred compounds for treatment of Src family-related disease))	IC50 [3]	IC50 [4]	IC50 [5]
CO[C@H]1[C@@H](OC)C[C@H](C)[C@@H](OC)C2=CC(=O)C=C(NC(=O)/C(C)=C/C=C\[C@H](OC)[C@@H](OC(N)=O)/C(C)=C/[C@@H]1C)C2=O [Herbimycin A]	inhibits osteoclastic bone resorption	–	–	–	–	–	–
Cc1csc2c(NN=Cc3cccnc3)ncnc12 [Compound 27, 3-Pyridinecarboxaldehyde(7-methylthieno[3,2-d]pyrimidin-4-yl)hydrazone]	–	≤ 2000 nM	370 nM	< 2000 nM	590 nM	280 nM	13000 nM
